Assay results published in US20060063759A1, “Tricyclic steroid hormone nuclear receptor modulators” (priority 2002, published 2006).

How the values were obtained:
human MR = target: T1, human MR (Homo sapiens, UniProt P08235); assay: Mineralocorticoid Receptor Binding Assay ([3H]-aldosterone); details: [3H]-aldosterone binding, human MR expressed in Sf9 cells; read-out: MR Ki
T1 construct: The full length human MR gene is cloned from a human kidney or human brain cDNA library; His tag from the pAcHLT vector (own knowledge); made in house; host or cells: Sf9 insect cells (baculovirus, pAcHLT transfer vector)
T1 sequence (P08235 1-984): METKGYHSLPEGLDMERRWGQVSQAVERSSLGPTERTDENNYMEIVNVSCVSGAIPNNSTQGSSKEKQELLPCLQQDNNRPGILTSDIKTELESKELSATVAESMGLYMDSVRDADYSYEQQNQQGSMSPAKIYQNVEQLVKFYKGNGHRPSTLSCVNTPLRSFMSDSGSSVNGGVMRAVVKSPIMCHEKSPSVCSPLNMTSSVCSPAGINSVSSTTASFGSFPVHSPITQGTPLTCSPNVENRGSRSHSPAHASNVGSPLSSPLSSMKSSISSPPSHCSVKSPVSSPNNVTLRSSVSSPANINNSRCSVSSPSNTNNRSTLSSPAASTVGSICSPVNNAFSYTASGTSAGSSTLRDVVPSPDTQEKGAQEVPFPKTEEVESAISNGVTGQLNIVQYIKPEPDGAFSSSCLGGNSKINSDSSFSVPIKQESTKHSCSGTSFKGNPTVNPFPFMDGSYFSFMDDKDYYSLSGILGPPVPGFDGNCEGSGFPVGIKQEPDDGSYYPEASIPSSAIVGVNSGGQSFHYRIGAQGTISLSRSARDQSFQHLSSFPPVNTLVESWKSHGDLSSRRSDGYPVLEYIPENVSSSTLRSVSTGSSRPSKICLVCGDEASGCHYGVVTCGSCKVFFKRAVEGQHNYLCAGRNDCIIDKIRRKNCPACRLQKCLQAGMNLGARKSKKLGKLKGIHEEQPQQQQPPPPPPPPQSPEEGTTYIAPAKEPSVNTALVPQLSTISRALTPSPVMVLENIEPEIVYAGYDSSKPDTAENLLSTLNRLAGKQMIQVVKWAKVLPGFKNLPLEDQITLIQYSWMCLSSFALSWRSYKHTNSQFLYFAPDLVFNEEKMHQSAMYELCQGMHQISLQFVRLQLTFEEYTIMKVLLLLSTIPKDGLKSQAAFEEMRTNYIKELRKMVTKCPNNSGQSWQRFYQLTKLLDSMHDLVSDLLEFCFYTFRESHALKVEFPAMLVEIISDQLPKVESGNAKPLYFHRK
Method in brief: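 Lysate supernatant of Sf9 cells expressing full-length human MR (20-25 μg protein) was incubated with 0.5 nM [3H]-aldosterone and test compound in molybdate/Tris/phosphate/glycerol buffer, pH 7.5, ~16 h at 4 °C. Bound ligand was filtered and counted by scintillation; IC50 is the concentration halving [3H]-aldosterone binding.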

glucocorticoid receptor = target: T2, glucocorticoid receptor (Homo sapiens, UniProt P04150); assay: Glucocorticoid Receptor Binding Assay ([3H]-dexamethasone, A549 cell extract); details: [3H]-dexamethasone binding, read-out: GR Ki
T2 construct: containing 50-200 ug of A549 cell extract and 1.86 nM [^3H]-dexamethasone; host or cells: A549 human lung epithelial cells (sonicated cell extract)
T2 sequence (P04150 1-777): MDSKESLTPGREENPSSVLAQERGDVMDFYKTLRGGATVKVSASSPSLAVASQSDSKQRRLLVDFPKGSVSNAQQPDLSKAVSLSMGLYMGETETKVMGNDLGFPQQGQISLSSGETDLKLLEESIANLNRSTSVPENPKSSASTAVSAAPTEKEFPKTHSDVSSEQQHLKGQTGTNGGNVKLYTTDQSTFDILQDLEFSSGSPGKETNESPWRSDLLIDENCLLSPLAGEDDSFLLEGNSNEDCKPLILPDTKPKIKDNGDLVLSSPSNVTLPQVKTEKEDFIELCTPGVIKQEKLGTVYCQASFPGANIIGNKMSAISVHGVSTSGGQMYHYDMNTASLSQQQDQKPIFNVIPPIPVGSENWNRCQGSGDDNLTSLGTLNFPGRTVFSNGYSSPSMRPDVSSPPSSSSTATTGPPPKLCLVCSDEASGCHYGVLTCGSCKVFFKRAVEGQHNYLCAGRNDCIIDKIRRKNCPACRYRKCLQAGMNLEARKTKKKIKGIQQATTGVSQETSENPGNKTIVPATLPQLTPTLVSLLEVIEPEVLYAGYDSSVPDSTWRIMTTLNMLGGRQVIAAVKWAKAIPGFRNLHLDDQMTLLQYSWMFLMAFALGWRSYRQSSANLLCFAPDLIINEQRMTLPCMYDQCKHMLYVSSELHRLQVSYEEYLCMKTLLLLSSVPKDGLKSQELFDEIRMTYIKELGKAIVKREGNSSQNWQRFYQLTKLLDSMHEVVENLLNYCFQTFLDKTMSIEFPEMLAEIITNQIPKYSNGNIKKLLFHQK
Method in brief: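 A549 cell extract (50–200 ug) incubated with 1.86 nM [3H]-dexamethasone and test compound for 16 h at 4 °C in Tris-HCl pH 7.2 buffer with glycerol and molybdate. Unbound radioligand removed by dextran-coated charcoal, then supernatant bound counts measured by scintillation.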

Ki (human MR) [µM] | Ki (glucocorticoid receptor) [µM] | SMILES
< 0.5 | < 0.5 | CS(=O)(=O)Nc1cccc(/C=C2\c3ccccc3CCc3cc(S(C)(=O)=O)ccc32)c1 [Example 392]
< 0.5 | < 0.5 | CS(=O)(=O)Nc1cccc(/C=C2/c3ccccc3CCc3cc(S(C)(=O)=O)ccc32)c1 [Example 393]
< 0.5 | < 0.5 | Nc1ccc(C=C2c3ccccc3CCc3cc(Cl)ccc32)cc1 [Example 394]
< 0.5 | < 10 | CS(=O)(=O)Nc1ccc(C=C2c3ccccc3CCc3cc(Cl)ccc32)cc1 [Example 395]
< 0.5 | < 0.5 | COC(=O)Nc1cccc(C=C2c3ccccc3CCc3cc(Cl)ccc32)c1 [Example 396]
< 0.5 | < 10 | CN(C)C(=O)Nc1cccc(C=C2c3ccccc3CCc3cc(Cl)ccc32)c1 [Example 397]
< 0.5 | < 0.5 | CN(c1cccc(C=C2c3ccccc3CCc3cc(Cl)ccc32)c1)S(C)(=O)=O [Example 398]
< 0.5 | < 10 | O=S(=O)(Nc1cccc(C=C2c3ccccc3CCc3cc(Cl)ccc32)c1)c1ccccc1 [Example 399]
< 0.5 | < 0.5 | O=C(Nc1cccc(C=C2c3ccccc3CCc3cc(Cl)ccc32)c1)C(F)(F)F [Example 400]
< 0.5 | < 0.5 | CS(=O)(=O)Nc1cccc(C=C2c3ccccc3CCc3cc(N)ccc32)c1 [Example 401]
< 0.5 | < 10 | CN(C)c1ccc2c(c1)CCc1ccccc1C2=Cc1cccc(NS(C)(=O)=O)c1 [Example 402]
< 0.5 | < 0.5 | CS(=O)(=O)Nc1cccc(C=C2c3ccccc3CCc3c(N)cccc32)c1 [Example 403]
< 0.5 | < 0.5 | CN(C)c1cccc2c1CCc1ccccc1C2=Cc1cccc(NS(C)(=O)=O)c1 [Example 404]
< 0.5 | < 0.5 | CC(=O)Nc1ccc2c(c1)CCc1ccccc1C2=Cc1cccc(NS(C)(=O)=O)c1 [Example 405]
< 0.5 | < 0.5 | CC(=O)Nc1cccc2c1CCc1ccccc1C2=Cc1cccc(NS(C)(=O)=O)c1 [Example 406]
< 0.5 | < 0.5 | CS(=O)(=O)Nc1cccc(/C=C2\c3ccccc3CCc3cc(N)ccc32)c1 [Example 407]
< 0.5 | < 0.5 | CS(=O)(=O)Nc1cccc(/C=C2/c3ccccc3CCc3cc(N)ccc32)c1 [Example 408]
< 0.5 | < 0.5 | CS(=O)(=O)Nc1cccc(/C=C2\c3ccccc3CCc3c(N)cccc32)c1 [Example 409]
< 0.5 | < 0.5 | CS(=O)(=O)Nc1cccc(/C=C2/c3ccccc3CCc3c(N)cccc32)c1 [Example 410]
< 0.5 | < 0.5 | CS(=O)(=O)Nc1cccc(C=C2c3ccccc3CCc3c2cccc3-c2ccccc2)c1 [Example 411]
< 0.5 | < 1 | CS(=O)(=O)Nc1cccc(C=C2c3ccccc3CCc3cc(-c4ccccc4)ccc32)c1 [Example 412]
< 0.5 | < 0.5 | O=C(Nc1cccc(/C=C2\c3ccccc3CCc3cc(Cl)ccc32)c1)C(F)(F)F [Example 413]
< 0.5 | < 0.5 | O=C(Nc1cccc(/C=C2/c3ccccc3CCc3cc(Cl)ccc32)c1)C(F)(F)F [Example 414]

Ki (human MR) [µM] | Ki (glucocorticoid receptor) [µM] | SMILES
< 0.5 | < 0.5 | CS(=O)(=O)Nc1cccc(/C=C2/c3ccccc3CCc3cc(C(N)=O)ccc32)c1 [Example 415]
< 0.5 | < 0.5 | CS(=O)(=O)Nc1cccc(/C=C2\c3ccccc3CCc3cc(C(N)=O)ccc32)c1 [Example 416]
< 0.5 | < 0.5 | CS(=O)(=O)Nc1cccc(/C=C2\c3ccccc3CCc3cc(C(=O)O)ccc32)c1 [Example 417]
< 0.5 | < 1 | CS(=O)(=O)Nc1cccc(/C=C2/c3ccccc3CCc3cc(C(=O)O)ccc32)c1 [Example 418]
< 0.5 | < 0.5 | COc1ccc2c(c1)CCc1cc(C)ccc1C2=Cc1cccc(NS(C)(=O)=O)c1 [Example 419]
< 0.5 | < 0.5 | Cc1ccc2c(c1)CCc1cc(F)ccc1C2=Cc1cccc(NS(C)(=O)=O)c1 [Example 420]
< 0.5 | < 0.5 | Cc1ccc2c(c1)CCc1cc(F)ccc1/C2=C\c1cccc(NS(C)(=O)=O)c1 [Example 421]
< 0.5 | < 0.5 | Cc1ccc2c(c1)CCc1cc(F)ccc1/C2=C/c1cccc(NS(C)(=O)=O)c1 [Example 422]
< 0.5 | < 0.5 | COc1ccc2c(c1)CCc1cc(C)ccc1/C2=C\c1cccc(NS(C)(=O)=O)c1 [Example 423]
< 0.5 | < 0.5 | COc1ccc2c(c1)CCc1cc(C)ccc1/C2=C/c1cccc(NS(C)(=O)=O)c1 [Example 424]
< 0.5 | < 10 | CS(=O)(=O)Nc1cccc(C=C2c3ccccc3CCc3cc(OCCN4CCOCC4)ccc32)c1 [Example 427]
< 0.5 | < 1 | O=c1[nH]c2cc(C=C3c4ccc(F)cc4CCc4cc(F)ccc43)ccc2n1CCN1CCOCC1 [Example 436, 5-(2,8-difluoro-10,11-dihydro-dibenzo[a,d]cyclohepten-5-ylidenemethyl)-1-(2-morpholin-4-yl-ethyl)-1,3-dihydro-benzoimidazol-2-one]
< 0.5 | < 0.5 | C(=C1c2ccccc2CCc2ccccc21)c1cn[nH]c1 [Example 439]
< 0.5 | < 0.5 | Nc1nc2ccc(C=C3c4ccccc4CCc4ccccc43)cc2s1 [Example 442]
< 0.5 | < 10 | C(=C1c2ccccc2CCc2ccccc21)c1ccc2nc[nH]c2c1 [Example 443]
< 0.5 | < 0.5 | Nc1n[nH]c2cc(C=C3c4ccccc4CCc4ccccc43)ccc12 [Example 444]
< 0.5 | < 10 | Nc1nc2ccc(C=C3c4ccccc4CCc4ccccc43)cc2[nH]1 [Example 445]
< 0.5 | < 0.5 | CS(=O)(=O)Nc1csc(C=C2c3ccccc3CCc3ccccc32)n1 [Example 446]
< 0.5 | < 0.5 | O=C1Cc2ccc(C=C3c4ccccc4CCc4ccccc43)cc2N1 [Example 447]
< 0.5 | < 10 | O=c1[nH]c2ccc(/C=C3\c4ccccc4CCc4cc(F)ccc43)cc2[nH]1 [Example 448]
< 0.5 | < 10 | O=c1[nH]c2ccc(/C=C3/c4ccccc4CCc4cc(F)ccc43)cc2[nH]1 [Example 449]
< 0.5 | < 0.5 | O=c1[nH]c2cc(/C=C3/c4ccccc4CCc4cc(F)ccc43)ccc2o1 [Example 450]
< 0.5 | < 10 | O=c1[nH]c2cc(/C=C3\c4ccccc4CCc4cc(F)ccc43)ccc2o1 [Example 451]
